The source made the active and inactive calls.
Tests used:
[1] = molecular target: Heat shock protein HSP 90-alpha (Homo sapiens, UniProt P07900); assay type: functional, organism-based
Trypsin = Trypsin (Sus scrofa, UniProt P00761); assay: porcine trypsin inhibitors, dose response, selectivity assay for Rce1 protease inhibitor project, biochemical, quenched peptide fluorescence, cherry-pick (AID 488789)
[2] = StAR promoter reporter inhibition counter-screen, dose response, counter-screen for LRH-1 inverse agonist project, cell-based, luminescence, luciferase reporter (AID 651969); assay type: functional
[3] = HEp-2 cell cytotoxicity, dose response, cytotoxicity control for RSV inhibitor project, HTS (AID 2410); assay type: functional; details: human respiratory syncytial virus
[4] = molecular target: T1, Lysine-specific demethylase 4C (Homo sapiens, UniProt Q9H3R0); assay: GASC-1 (JMJD2C) histone demethylase inhibitors, dose response, biochemical, DELFIA europium, cherry-picked samples (AID 488835); assay type: functional
T1 sequence (Q9H3R0 whole entry): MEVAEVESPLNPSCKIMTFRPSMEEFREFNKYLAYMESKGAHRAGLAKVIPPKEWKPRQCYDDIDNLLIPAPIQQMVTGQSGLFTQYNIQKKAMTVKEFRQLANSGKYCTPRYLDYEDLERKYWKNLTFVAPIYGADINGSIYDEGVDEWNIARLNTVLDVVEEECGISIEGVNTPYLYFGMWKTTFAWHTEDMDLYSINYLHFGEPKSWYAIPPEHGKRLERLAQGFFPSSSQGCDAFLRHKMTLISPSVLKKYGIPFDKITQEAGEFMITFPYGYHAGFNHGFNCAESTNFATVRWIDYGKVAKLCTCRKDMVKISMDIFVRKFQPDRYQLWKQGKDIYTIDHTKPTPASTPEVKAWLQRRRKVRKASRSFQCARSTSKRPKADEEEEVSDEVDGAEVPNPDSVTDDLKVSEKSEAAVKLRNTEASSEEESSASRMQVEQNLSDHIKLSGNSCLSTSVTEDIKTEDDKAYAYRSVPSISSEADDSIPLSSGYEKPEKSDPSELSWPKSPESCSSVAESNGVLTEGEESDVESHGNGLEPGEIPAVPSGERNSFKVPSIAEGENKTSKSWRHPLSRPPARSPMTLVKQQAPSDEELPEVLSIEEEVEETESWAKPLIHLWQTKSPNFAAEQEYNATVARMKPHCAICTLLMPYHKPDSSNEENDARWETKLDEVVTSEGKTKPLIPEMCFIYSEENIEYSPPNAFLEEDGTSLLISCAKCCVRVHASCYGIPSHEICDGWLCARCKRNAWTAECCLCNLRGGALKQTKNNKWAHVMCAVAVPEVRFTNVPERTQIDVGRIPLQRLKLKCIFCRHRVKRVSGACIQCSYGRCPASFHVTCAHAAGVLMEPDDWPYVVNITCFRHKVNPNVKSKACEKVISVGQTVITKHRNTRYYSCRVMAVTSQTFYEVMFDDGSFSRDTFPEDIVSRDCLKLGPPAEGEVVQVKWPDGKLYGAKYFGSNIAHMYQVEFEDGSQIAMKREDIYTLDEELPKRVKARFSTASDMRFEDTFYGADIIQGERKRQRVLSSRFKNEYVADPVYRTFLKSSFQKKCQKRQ

[5] = molecular target: T2, E3 ubiquitin-protein ligase XIAP (Homo sapiens, UniProt P98170); assay: Counter Screen using XIAP-Bir3 for Chemical Antagonists of Bir1/2 domains of IAP-family anti-apoptotic proteins. [Related pubchem assays (depositor defined):AID1018, AID1449, AID1514, AID1638, AID1749, AID1750, AID488957, AID488963]
[6] = molecular target: T2, E3 ubiquitin-protein ligase XIAP; assay: XIAP antagonists, biochemical, IAP family, fluorescence polarization (AID 1018); assay type: functional
Phospholipase A2 = Phospholipase A2 (Homo sapiens, UniProt P04054); assay type: functional;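 also: confirmatory dose-response counterscreen on phospholipase A2, testing hits that came from an ultra-high-throughput screen for ATG4B inhibitors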
Cysteine protease ATG4B = molecular target: T3, Cysteine protease ATG4B (Homo sapiens, UniProt Q9Y4P1); assay type: functional;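 also: Fluorescence-based dose-response confirmation assay measuring inhibition of ATG4B activity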
T3 sequence (Q9Y4P1 whole entry): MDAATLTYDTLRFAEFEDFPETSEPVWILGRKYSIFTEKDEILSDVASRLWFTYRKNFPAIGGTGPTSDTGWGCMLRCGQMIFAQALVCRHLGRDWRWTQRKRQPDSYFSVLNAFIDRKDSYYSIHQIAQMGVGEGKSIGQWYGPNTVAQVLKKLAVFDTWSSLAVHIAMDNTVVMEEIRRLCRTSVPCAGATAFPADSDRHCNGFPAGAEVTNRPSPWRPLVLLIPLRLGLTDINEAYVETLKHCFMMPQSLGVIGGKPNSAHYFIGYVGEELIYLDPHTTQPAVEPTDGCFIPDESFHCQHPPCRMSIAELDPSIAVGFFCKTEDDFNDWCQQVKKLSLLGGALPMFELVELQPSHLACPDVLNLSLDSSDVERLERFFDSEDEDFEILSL

[7] = molecular target: T4, Calpain-2 catalytic subunit (Sus scrofa, UniProt P43367); assay: pig calpain II inhibitor potency, dose response, biochemical, fluorogenic peptide substrate (AID 1420); assay type: functional
T4 sequence (P43367 whole entry): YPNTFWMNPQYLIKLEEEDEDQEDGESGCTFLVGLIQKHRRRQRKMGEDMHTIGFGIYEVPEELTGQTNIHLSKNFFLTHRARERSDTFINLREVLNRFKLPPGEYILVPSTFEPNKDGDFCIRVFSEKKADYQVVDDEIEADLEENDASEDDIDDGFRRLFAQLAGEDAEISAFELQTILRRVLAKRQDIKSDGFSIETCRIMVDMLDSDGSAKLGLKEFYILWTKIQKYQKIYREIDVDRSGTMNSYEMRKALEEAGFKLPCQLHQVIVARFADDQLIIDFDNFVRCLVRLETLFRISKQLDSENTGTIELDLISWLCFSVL

[8] = molecular target: T5, Replicative DNA helicase DnaB (Mycobacterium tuberculosis, UniProt P9WMR3); assay: DnaB intein splicing inhibitors, dose response, biochemical, cell-free fluorescence (AID 449749); assay type: functional
T5 sequence (P9WMR3 whole entry): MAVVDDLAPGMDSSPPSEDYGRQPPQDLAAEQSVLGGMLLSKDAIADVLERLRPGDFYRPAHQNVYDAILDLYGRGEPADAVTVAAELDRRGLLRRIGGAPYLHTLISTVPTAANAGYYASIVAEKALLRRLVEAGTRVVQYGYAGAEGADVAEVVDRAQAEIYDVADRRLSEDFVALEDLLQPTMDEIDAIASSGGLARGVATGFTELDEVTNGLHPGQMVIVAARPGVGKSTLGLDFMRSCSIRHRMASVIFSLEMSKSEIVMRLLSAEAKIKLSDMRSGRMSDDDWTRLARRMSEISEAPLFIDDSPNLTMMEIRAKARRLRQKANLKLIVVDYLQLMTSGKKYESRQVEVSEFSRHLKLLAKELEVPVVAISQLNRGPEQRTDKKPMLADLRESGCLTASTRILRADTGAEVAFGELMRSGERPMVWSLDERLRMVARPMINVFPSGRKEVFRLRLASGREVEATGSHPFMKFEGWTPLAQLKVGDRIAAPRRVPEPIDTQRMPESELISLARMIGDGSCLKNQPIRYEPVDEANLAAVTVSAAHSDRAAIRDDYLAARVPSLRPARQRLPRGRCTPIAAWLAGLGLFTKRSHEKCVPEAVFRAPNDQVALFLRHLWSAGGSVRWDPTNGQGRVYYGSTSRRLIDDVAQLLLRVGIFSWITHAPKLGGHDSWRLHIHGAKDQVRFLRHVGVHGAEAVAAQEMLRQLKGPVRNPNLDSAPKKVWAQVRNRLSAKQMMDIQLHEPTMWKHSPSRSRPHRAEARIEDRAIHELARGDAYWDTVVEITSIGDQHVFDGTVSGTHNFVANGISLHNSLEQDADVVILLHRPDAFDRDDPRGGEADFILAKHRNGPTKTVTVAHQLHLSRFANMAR

Protein RecA = molecular target: T6, Protein RecA (Mycobacterium tuberculosis, UniProt P9WHJ3); assay: Fluorescence Cell-Free Homogeneous Dose Retest to Identify Inhibitors of RecA-Intein Splicing Activity. [Related pubchem assays (depositor defined):AID2097, AID2223, AID489010, AID492950]; assay type: functional
T6 sequence (P9WHJ3 whole entry): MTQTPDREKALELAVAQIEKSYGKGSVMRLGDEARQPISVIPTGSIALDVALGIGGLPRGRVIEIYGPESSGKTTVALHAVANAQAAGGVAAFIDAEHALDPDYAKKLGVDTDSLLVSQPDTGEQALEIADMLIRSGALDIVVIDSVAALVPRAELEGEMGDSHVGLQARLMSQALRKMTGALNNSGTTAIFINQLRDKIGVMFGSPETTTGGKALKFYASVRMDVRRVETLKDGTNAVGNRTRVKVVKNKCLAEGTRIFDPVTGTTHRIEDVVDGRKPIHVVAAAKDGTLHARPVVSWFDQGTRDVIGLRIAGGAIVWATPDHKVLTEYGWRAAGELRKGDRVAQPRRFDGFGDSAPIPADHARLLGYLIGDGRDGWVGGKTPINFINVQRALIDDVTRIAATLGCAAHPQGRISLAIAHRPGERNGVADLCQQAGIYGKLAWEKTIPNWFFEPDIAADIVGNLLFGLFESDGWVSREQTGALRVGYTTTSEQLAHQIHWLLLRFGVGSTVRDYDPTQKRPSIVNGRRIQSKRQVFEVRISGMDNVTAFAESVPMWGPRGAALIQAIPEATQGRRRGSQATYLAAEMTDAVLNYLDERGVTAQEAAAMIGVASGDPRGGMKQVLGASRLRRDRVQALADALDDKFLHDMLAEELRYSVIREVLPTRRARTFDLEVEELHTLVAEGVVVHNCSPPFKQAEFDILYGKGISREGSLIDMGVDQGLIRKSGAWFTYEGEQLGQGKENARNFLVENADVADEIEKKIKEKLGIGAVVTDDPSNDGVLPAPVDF

Caspase-6 = molecular target: T7, Caspase-6 (Homo sapiens, UniProt P55212); assay: human caspase-6 inhibitors, dose response, biochemical, VEID-R110 fluorescence, cherry-pick (AID 720632)
T7 sequence (P55212 whole entry): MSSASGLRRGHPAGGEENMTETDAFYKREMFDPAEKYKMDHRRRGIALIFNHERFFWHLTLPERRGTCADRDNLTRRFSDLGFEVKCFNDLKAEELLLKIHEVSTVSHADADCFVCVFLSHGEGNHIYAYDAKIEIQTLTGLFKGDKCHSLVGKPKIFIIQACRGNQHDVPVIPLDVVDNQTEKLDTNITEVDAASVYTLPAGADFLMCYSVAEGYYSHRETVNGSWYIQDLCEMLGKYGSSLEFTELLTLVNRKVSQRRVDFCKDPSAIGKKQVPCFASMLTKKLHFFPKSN

Genome polyprotein = Genome polyprotein (dengue virus type 2, UniProt P29990); assay: Dengue-2 NS5 methyltransferase inhibitors, primary screen, biochemical, confirmation dose response (AID 588689); assay type: functional
INS1 = assay: beta cell apoptosis inhibitors, cytokine rescue, dose response, luminescence, retest (AID 449756); assay type: functional, cell-based; details: Rattus norvegicus;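 also: cell death triggered by IL-1 beta plus TNF-alpha plus IFN-gamma mixture; protective hits raise ATP signal compared with cytokine alone wells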
Large T antigen = Large T antigen (Simian virus 40, UniProt P03070); assay type: functional, Betapolyomavirus macacae;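 also: Confirmatory-stage PubChem screen for compounds that inhibit SV40 T antigen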
Sequence of Large T antigen (P03070 whole entry): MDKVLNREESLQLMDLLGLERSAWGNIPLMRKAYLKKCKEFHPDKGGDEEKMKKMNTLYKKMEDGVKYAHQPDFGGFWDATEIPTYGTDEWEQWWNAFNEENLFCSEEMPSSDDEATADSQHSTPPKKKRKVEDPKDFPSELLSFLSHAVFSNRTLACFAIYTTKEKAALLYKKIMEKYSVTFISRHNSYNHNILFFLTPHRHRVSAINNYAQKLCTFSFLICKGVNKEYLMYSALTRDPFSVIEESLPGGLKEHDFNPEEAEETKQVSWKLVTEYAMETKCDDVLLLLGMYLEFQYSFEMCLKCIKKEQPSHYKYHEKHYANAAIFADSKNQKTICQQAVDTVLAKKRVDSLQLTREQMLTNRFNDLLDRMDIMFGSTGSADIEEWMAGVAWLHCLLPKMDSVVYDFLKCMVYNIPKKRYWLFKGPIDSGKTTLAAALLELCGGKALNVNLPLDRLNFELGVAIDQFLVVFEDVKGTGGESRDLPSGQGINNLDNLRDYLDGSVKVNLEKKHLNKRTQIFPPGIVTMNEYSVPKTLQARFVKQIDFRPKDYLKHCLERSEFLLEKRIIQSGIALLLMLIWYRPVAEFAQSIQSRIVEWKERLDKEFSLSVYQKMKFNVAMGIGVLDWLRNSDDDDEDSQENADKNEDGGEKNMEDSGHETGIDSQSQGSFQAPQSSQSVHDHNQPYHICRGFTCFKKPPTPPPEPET

T2 sequence (P98170 whole entry): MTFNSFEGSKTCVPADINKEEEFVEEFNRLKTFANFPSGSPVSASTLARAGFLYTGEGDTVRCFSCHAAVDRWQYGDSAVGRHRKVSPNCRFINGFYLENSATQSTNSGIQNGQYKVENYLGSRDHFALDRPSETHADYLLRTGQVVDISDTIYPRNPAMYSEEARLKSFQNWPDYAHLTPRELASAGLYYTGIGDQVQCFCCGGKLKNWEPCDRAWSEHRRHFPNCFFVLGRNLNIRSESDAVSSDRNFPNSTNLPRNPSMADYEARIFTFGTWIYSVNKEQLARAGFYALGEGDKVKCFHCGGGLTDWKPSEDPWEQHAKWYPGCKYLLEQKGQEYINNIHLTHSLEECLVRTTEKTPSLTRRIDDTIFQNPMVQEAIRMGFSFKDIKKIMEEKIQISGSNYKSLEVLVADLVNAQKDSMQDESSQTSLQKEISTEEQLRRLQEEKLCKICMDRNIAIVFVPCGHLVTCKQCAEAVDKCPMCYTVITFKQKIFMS
Sequence of Phospholipase A2 (P04054 whole entry): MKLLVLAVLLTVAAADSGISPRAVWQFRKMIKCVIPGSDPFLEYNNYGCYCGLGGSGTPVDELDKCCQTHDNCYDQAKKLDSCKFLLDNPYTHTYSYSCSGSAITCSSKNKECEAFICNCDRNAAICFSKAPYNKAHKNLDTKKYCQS
Sequence of Genome polyprotein (P29990 2492-3391 limits assumed): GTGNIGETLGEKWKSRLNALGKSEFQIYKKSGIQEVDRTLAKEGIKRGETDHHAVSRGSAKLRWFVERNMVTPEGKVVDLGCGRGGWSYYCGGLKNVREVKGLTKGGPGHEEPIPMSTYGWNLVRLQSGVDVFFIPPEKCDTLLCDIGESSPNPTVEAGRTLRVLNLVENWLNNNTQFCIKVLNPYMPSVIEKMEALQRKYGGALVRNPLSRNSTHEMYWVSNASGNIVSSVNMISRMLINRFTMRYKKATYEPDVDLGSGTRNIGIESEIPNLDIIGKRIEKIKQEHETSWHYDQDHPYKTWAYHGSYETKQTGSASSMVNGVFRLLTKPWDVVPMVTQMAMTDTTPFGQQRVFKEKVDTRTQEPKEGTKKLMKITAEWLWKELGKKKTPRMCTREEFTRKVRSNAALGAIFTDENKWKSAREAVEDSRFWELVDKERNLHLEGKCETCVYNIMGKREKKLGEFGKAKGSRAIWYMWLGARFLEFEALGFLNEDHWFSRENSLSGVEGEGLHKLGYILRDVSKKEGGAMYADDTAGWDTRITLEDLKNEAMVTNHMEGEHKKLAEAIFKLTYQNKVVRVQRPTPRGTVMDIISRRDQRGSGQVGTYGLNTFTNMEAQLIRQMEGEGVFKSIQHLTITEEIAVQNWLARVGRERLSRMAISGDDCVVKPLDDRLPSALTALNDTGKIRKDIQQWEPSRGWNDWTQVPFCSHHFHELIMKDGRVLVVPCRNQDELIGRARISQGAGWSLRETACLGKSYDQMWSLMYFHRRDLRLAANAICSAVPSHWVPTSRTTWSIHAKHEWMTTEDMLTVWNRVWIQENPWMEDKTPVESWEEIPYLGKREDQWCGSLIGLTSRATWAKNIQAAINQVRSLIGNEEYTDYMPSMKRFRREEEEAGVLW
Sequence of Trypsin (P00761 whole entry): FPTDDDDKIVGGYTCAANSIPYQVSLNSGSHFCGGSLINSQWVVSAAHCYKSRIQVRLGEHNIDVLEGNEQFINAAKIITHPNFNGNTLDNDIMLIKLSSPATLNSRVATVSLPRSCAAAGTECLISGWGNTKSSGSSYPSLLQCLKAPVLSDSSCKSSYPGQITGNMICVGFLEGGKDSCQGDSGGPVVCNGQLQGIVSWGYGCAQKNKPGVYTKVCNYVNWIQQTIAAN

In the case of `CC(=N)/C(C#N)=C(/O)COC(=O)c1ccncc1`, the IC50 (cells) is reported as 1.14 µM (active).
In the case of `COc1ccccc1-c1sc2cc3c(cc2c1-c1ccc(O)cc1)OCO3`, the AC50 [1] is reported as 8.22 µM (active).
For `O=C(Nc1ccccc1)n1ccc(-c2ccc(-n3ccnc3)cc2)n1`, the AC50 (Trypsin) was 17.9 µM (active).
In the case of `CCc1c(C)nc(SCC(=O)Nc2ccc3c(c2)OCCO3)nc1O`, the IC50 [2] is reported as 35.9 µM (inactive).
With `CCn1c(=O)c2cc(C(=O)N(C)c3cc(C)ccc3OC)sc2c2ccccc21` the IC50 (cells) was 21.5 µM (active) and the CC50 [3] was 21.2 µM (active).
For `CCC(C)N=C(S)N1CCN(C)CC1` (centres undefined), the AC50 [4] was 26.5 µM (active).
For `CCOc1ccccc1N1CCN(C(=O)c2cccc(-c3ccc(O)cc3)c2)CC1`, the IC50 [5] was > 100 µM (inactive), the IC50 [6] was > 100 µM (not active) and the AC50 [1] was 3.3 µM (active).
For `CC(C)(C)c1nc(SCC(=O)c2ccccc2)c2ccccc2n1`, the IC50 (Phospholipase A2) was 10.1 µM (active), the IC50 (Cysteine protease ATG4B) was 15.8 µM (active) and the IC50 [7] was > 50 µM (not active). For the same compound, the CC50 [3] was 39.5 µM (active).
With `COc1ccc2nc3cccc(OC)c3nc2c1` the AC50 [8] was > 380 µM (inactive), the EC50 (Protein RecA) was 20.8 µM (active) and the AC50 (Caspase-6) was 23.1 µM (active). For the same compound, the IC50 (Genome polyprotein) was > 100 µM (active).
In the case of `CCOC(=O)c1c(C)n(C)c2ccc(O)c(S(=O)(=O)c3ccccc3)c12`, the AC50 [4] is reported as 9.92 µM (active).
With `CCOc1ccc(NC(=NCc2ccc3c(c2)OCO3)SC2CC(=O)N(c3ccc(C(=O)O)cc3)C2=O)cc1` (centres undefined) the IC50 (cells) was 15.6 µM (active) and the CC50 [3] was 22.8 µM (active).
For `O=S(=O)(c1ccc2nc(Nc3ccccc3)ccc2c1)N1CCCCC1`, the AC50 [4] was 6.53 µM (active) and the AC50 (INS1) was 12.2 µM (active).
With `O=S(=O)(Nc1ccc(O)cc1)c1cccc2cccnc12` the IC50 (Large T antigen) was 7.36 µM (active).
